{"source": "patent US20040214799A1", "about": "“Cancerous metastasis inhibitors containing carbacyclic phosphatidic acid derivatives” (priority 2001, published 2004)", "key": {"[1]": {"system": "MM1 cells", "assay": "Effect on the proliferation of MM1 cells", "type": "cell-based, rat", "conditions": "12.5 μM or 25 μM cPA, 10% FBS, 24 hours and 72 hours", "experimental": "12.5 μM and 25 μM cPA were added to media containing 10% FBS, and then the cells were cultured under conditions of 37° C. and 5% CO2 for 24 hours and 72 hours. The number of the MM1 cells was counted using a hemocytometer."}, "[2]": {"system": "Mouse malignant melanoma B16-F0", "assay": "B16 melanoma hematogenous lung metastasis model; as to Metastatic nodules, Abdominal cavity Adipose tissue: key: −: Absent; +: Present; as to Metastatic nodules, Abdominal cavity Adrenal gland: key: −: Absent; +: Present; as to Metastatic nodules, Abdominal cavity Diaphragm: key: −: Absent; +: Present; as to Metastatic nodules, Abdominal cavity Kidney: key: −: Absent; +: Present; as to Metastatic nodules, Abdominal cavity Ovary: key: −: Absent; +: Present; as to Metastatic nodules, Abdominal cavity Spleen: key: −: Absent; +: Present; as to Metastatic nodules, Thoracic cavity: key: −: Absent; +: Present; as to Metastatic nodules, Tissue around glandual clitoris: key: −: Absent; +: Present", "type": "in vivo", "conditions": "for invasion of lymphocytes into metastatic lesions observed in cases: animals with metastatic lesions; for Metastatic nodules, Abdominal cavity Adipose tissue / Metastatic nodules, Abdominal cavity Adrenal gland / Metastatic nodules, Abdominal cavity Diaphragm / Metastatic nodules, Abdominal cavity Kidney / Metastatic nodules, Abdominal cavity Ovary / Metastatic nodules, Abdominal cavity Spleen / Metastatic nodules, Thoracic cavity / Metastatic nodules, Tissue around glandual clitoris: autopsy day 14, individual animals; for Number of lung tumor nodules, Range (mininum-maximum) / Number of mice having lung tumor nodules: day 14, N 6; for Number of lung tumor nodules: day 14, mean ± S.D.; for Number of lung tumor nodules / Number of mice having metastatic lesions: N 6; for Number of mice having metastatic lesions / Findings: Invasion of lymphocytes into melanoma metastatic lesion: lung histopathology; for Findings: Invasion of lymphocytes into melanoma metastatic lesion: individual animals; for Number of metastatic lesions per section, Large size: major diameter 0.65 mm ≦ and <1.3 mm; for Number of metastatic lesions per section, Large size / Number of metastatic lesions per section, Small size / Number of metastatic lesions per section, Total: mean ± S.D.; for Number of metastatic lesions per section, Small size: major diameter <0.65 mm, left lobe and posterior lobe", "experimental": "cPA-19 and cPA-20 were used as test substances. 0.1 w/v % BSA/PBS which was prepared by dissolving Albumin, Bovine [essentially Fatty Acid Free] (BSA, Lot No. 89H7604, Sigma chemical company) in Ca^2+ and Mg^2+ free PBS (pH 7.2), was used as a medium After preparation, the solution was sterilized by filtration using a filter (0.22 μm, Millipore). Preparation was performed when used. cPA-5 was used as a positive control substance.\nA medium was added in a volume required for a test substance or a positive control substance. Dissolution was performed by ultrasonication, thereby preparing a 0.16 mg/mL solution. The 0.16 mg/mL solution containing a test substance was diluted with a medium, thereby preparing 0.08 and 0.02 mg/mL solutions. All mixtures were prepared when used.\nMice were purchased from CHARLES RIVER JAPAN. INC. The line employed herein was C57BL/6NCrj (sexuality: female). The number of animals kept in stock was 60, and the age of these animals when kept in stock was 4 weeks. […] The environmental conditions for the test system were as follows:\nMouse malignant melanoma B16-F0 was used as a tumor cell. The cell was purchased from Dainippon Pharmaceutical Co., Ltd.\nDulbecco's Modified Eagle's Media containing 10% feral bovine serum and kanamycin were used for culture. […] A medium was added to stop the action of trypsin while pipetting, thereby preparing a cell suspension. The suspension was diluted by one-tenth with a medium for culturing, followed by subculturing until it reached a volume sufficient for grafting.\nA cell suspension was prepared by the same technique as the subculture method. Specifically, the cells were washed with a Ca^2+ and Mg^2+ free phosphate buffer [PBS(−)], and then harvested. The harvested cells were suspended in a 10 mL of PBS(−), thereby preparing a cell suspension. The number of cells in the cell suspension was measured to obtain the total cell number. 50 μL of the cell suspension, 100 μL of 0.4% trypan blue liquid and 100 μL of PBS(−) were mixed, and then viable count was measured. The survival rate of the cells was calculated from the viable count and total cell number.\nBased on the body weight on the day of the administration of the test substance, mice were grouped into 8 test groups according to the stratified continuous randomization method as shown in Table 2 below.\nThe mixture was administered via the caudal vein. The number of grafted cells was 5×10^5 cells/body. The dose of the test substance was 0.001, 0.004 or 0.008 mg/body, and the dose of the positive control substance was 0.008 mg/body.\nOn day 14 after the administration of the test substance, blood was collected from the posterior portion of the abdominal vena cava under isoflurane anesthesia. After the mice were sacrificed by blood-letting, the presence or absence of intrapleural and intraperitoneal metastatic nodules was confirmed. Lungs were extracted, and then fixed with a 10% neutral buffered formalin solution. The number of nodules resulting from lung metastasis was measured under a stereoscopic microscope (magnification: 10 times).\nAfter the measurement of the number of nodules resulting from lung metastasis, samples were paraffin-embedded, and then thin sections were prepared. Hematoxylin eosinic-stained samples were prepared from these sections. The number of metastatic lesions in the certain portions of the left lobe and the posterior lobe was measured, and then the lesions were sorted by size. On the basis of the diameter (0.65 mm) of an object lens (×40), metastatic lesions with major diameters of less than 0.65 mm were classified as having a small size, and those with major diameters of between 0.65 mm or more and less than 1.30 mm were classified as having a large size. Furthermore, the degree of invasion of lymphocytes into metastatic lesions was confirmed qualitatively.\nThe representative value of each test group was denoted as mean±standard deviation (mean±S.D.). Differences in mean values were examined as follows."}, "[3]": {"conditions": "0.001 mg/body i.v., autopsy, 6 mice"}, "[4]": {"conditions": "0.004 mg/body i.v., autopsy, 6 mice"}, "[5]": {"conditions": "0.008 mg/body i.v., autopsy, 6 mice"}}, "note": "Several values for one entry are separate records, joined by “and”; a condition that tells them apart may be missing. Equal values may be shown once.", "data": [{"substance": "carba-ΔPal-cPA [cPA-20]", "values": [{"measurement": "effect on MM1 cell proliferation (in words)", "setting": "[1]", "value": "showed proliferation suppressing activity"}, {"measurement": "invasion of lymphocytes into metastatic lesions observed in cases", "setting": "[2]; 0.001 mg/body i.v.", "value": "1 out of 4"}, {"measurement": "Metastatic nodules, Abdominal cavity Adipose tissue", "setting": "[2]; 0.001 mg/body i.v.", "value": "−"}, {"measurement": "Metastatic nodules, Abdominal cavity Adrenal gland", "setting": "[2]; 0.001 mg/body i.v.", "value": "−"}, {"measurement": "Metastatic nodules, Abdominal cavity Diaphragm", "setting": "[2]; 0.001 mg/body i.v.", "value": "− (5×) and +"}, {"measurement": "Metastatic nodules, Abdominal cavity Kidney", "setting": "[2]; 0.001 mg/body i.v.", "value": "−"}, {"measurement": "Metastatic nodules, Abdominal cavity Ovary", "setting": "[2]; 0.001 mg/body i.v.", "value": "− (5×) and +"}, {"measurement": "Metastatic nodules, Abdominal cavity Spleen", "setting": "[2]; 0.001 mg/body i.v.", "value": "− (5×) and +"}, {"measurement": "Metastatic nodules, Thoracic cavity", "setting": "[2]; 0.001 mg/body i.v.", "value": "− (5×) and +"}, {"measurement": "Metastatic nodules, Tissue around glandual clitoris", "setting": "[2]; 0.001 mg/body i.v.", "value": "− (5×) and +"}, {"measurement": "cases with metastatic nodules in the diaphragm", "setting": "[2]; [3]", "value": 1, "unit": "case"}, {"measurement": "cases with metastatic nodules in the ovary", "setting": "[2]; [3]", "value": 1, "unit": "cases"}, {"measurement": "cases with metastatic nodules in the spleen", "setting": "[2]; [3]", "value": 1, "unit": "case"}, {"measurement": "cases with metastatic nodules in the thoracic cavity", "setting": "[2]; [3]", "value": 1, "unit": "case"}, {"measurement": "cases with metastatic nodules in tissue around the glandual clitoris", "setting": "[2]; [3]", "value": 1, "unit": "case"}, {"measurement": "Number of lung tumor nodules, Range (mininum-maximum)", "setting": "[2]; 0.001 mg/body i.v.", "value": "17-112"}, {"measurement": "Number of mice having lung tumor nodules", "setting": "[2]; 0.001 mg/body i.v.", "value": 6}, {"measurement": "Number of lung tumor nodules", "setting": "[2]; 0.001 mg/body i.v.", "value": "58 ± 40"}, {"measurement": "Number of mice having metastatic lesions", "setting": "[2]; 0.001 mg/body i.v.", "value": 4}, {"measurement": "Findings: Invasion of lymphocytes into melanoma metastatic lesion", "setting": "[2]; 0.001 mg/body i.v.", "value": "− (3×) and ++"}, {"measurement": "Number of metastatic lesions per section, Large size", "setting": "[2]; 0.001 mg/body i.v.", "value": "1.2 ± 1.3"}, {"measurement": "Number of metastatic lesions per section, Small size", "setting": "[2]; 0.001 mg/body i.v.", "value": "3.2 ± 3.5"}, {"measurement": "Number of metastatic lesions per section, Total", "setting": "[2]; 0.001 mg/body i.v.", "value": "4.3 ± 4.6"}, {"measurement": "number of metastatic nodules of B16-F0 in the lungs versus medium group (in words)", "setting": "[2]; 0.004 mg/body i.v.", "value": "significant decrease in the number of metastatic nodules"}, {"measurement": "invasion of lymphocytes into metastatic lesions observed in cases", "setting": "[2]; 0.004 mg/body i.v.", "value": "no invasions were observed in 1 case"}, {"measurement": "Metastatic nodules, Abdominal cavity Adipose tissue", "setting": "[2]; 0.004 mg/body i.v.", "value": "−"}, {"measurement": "Metastatic nodules, Abdominal cavity Adrenal gland", "setting": "[2]; 0.004 mg/body i.v.", "value": "−"}, {"measurement": "Metastatic nodules, Abdominal cavity Diaphragm", "setting": "[2]; 0.004 mg/body i.v.", "value": "−"}, {"measurement": "Metastatic nodules, Abdominal cavity Kidney", "setting": "[2]; 0.004 mg/body i.v.", "value": "−"}, {"measurement": "Metastatic nodules, Abdominal cavity Ovary", "setting": "[2]; 0.004 mg/body i.v.", "value": "−"}, {"measurement": "Metastatic nodules, Abdominal cavity Spleen", "setting": "[2]; 0.004 mg/body i.v.", "value": "− (5×) and +"}, {"measurement": "Metastatic nodules, Thoracic cavity", "setting": "[2]; 0.004 mg/body i.v.", "value": "−"}, {"measurement": "Metastatic nodules, Tissue around glandual clitoris", "setting": "[2]; 0.004 mg/body i.v.", "value": "−"}, {"measurement": "cases with metastatic nodules in the spleen", "setting": "[2]; [4]", "value": 1, "unit": "case"}, {"measurement": "metastatic nodules in the thoracic cavity", "setting": "[2]; [4]", "value": "no metastatic nodules were observed"}, {"measurement": "Number of lung tumor nodules, Range (mininum-maximum)", "setting": "[2]; 0.004 mg/body i.v.", "value": "0-4"}, {"measurement": "Number of mice having lung tumor nodules", "setting": "[2]; 0.004 mg/body i.v.", "value": "2 &"}, {"measurement": "Number of lung tumor nodules", "setting": "[2]; 0.004 mg/body i.v.", "value": "1 ± 2"}, {"measurement": "Number of mice having metastatic lesions", "setting": "[2]; 0.004 mg/body i.v.", "value": "1 &&"}, {"measurement": "Findings: Invasion of lymphocytes into melanoma metastatic lesion", "setting": "[2]; 0.004 mg/body i.v.", "value": "−"}, {"measurement": "Number of metastatic lesions per section, Large size", "setting": "[2]; 0.004 mg/body i.v.", "value": "0 ± 0!!"}, {"measurement": "Number of metastatic lesions per section, Small size", "setting": "[2]; 0.004 mg/body i.v.", "value": "0.2 ± 0.4"}, {"measurement": "Number of metastatic lesions per section, Total", "setting": "[2]; 0.004 mg/body i.v.", "value": "0.2 ± 0.4!!"}, {"measurement": "metastasis / number of metastatic nodules in the lungs versus medium group (in words)", "setting": "[2]; 0.008 mg/body i.v.", "value": "almost completely suppressed metastasis"}, {"measurement": "Metastatic nodules, Abdominal cavity Adipose tissue", "setting": "[2]; 0.008 mg/body i.v.", "value": "−"}, {"measurement": "Metastatic nodules, Abdominal cavity Adrenal gland", "setting": "[2]; 0.008 mg/body i.v.", "value": "−"}, {"measurement": "Metastatic nodules, Abdominal cavity Diaphragm", "setting": "[2]; 0.008 mg/body i.v.", "value": "−"}, {"measurement": "Metastatic nodules, Abdominal cavity Kidney", "setting": "[2]; 0.008 mg/body i.v.", "value": "−"}, {"measurement": "Metastatic nodules, Abdominal cavity Ovary", "setting": "[2]; 0.008 mg/body i.v.", "value": "−"}, {"measurement": "Metastatic nodules, Abdominal cavity Spleen", "setting": "[2]; 0.008 mg/body i.v.", "value": "− (5×) and +"}, {"measurement": "Metastatic nodules, Thoracic cavity", "setting": "[2]; 0.008 mg/body i.v.", "value": "−"}, {"measurement": "Metastatic nodules, Tissue around glandual clitoris", "setting": "[2]; 0.008 mg/body i.v.", "value": "−"}, {"measurement": "cases with metastatic nodules in the spleen", "setting": "[2]; [5]", "value": 1, "unit": "case"}, {"measurement": "metastatic nodules in the thoracic cavity", "setting": "[2]; [5]", "value": "no metastatic nodules were observed"}, {"measurement": "Number of lung tumor nodules, Range (mininum-maximum)", "setting": "[2]; 0.008 mg/body i.v.", "value": "0-1"}, {"measurement": "Number of mice having lung tumor nodules", "setting": "[2]; 0.008 mg/body i.v.", "value": "1 &&"}, {"measurement": "Number of lung tumor nodules", "setting": "[2]; 0.008 mg/body i.v.", "value": "0 ± 0"}, {"measurement": "Number of mice having metastatic lesions", "setting": "[2]; 0.008 mg/body i.v.", "value": "0 &&"}, {"measurement": "Number of metastatic lesions per section, Large size", "setting": "[2]; 0.008 mg/body i.v.", "value": "0 ± 0!!"}, {"measurement": "Number of metastatic lesions per section, Small size", "setting": "[2]; 0.008 mg/body i.v.", "value": "0 ± 0!"}, {"measurement": "Number of metastatic lesions per section, Total", "setting": "[2]; 0.008 mg/body i.v.", "value": "0 ± 0!!"}, {"measurement": "number of mice having intrapleural or intraperitoneal metastatic nodules, dose dependence (in words)", "setting": "[2]; 0.001, 0.004 and 0.008 mg/body i.v.", "value": "decreased as the dose increased"}, {"measurement": "action of suppressing the lung metastasis of B16-F0 compared with cPA-5", "setting": "[2]; 0.004 and 0.008 mg/body i.v.", "value": "stronger than that of cPA-5"}]}]}
